Data set [1] can be described thus: Solubility (thermodynamic, shake-flask). Particulars: thermodynamic from solid; aqueous phosphate buffer (pH 7.4), 24 hours at 25° C. It is filed as physicochemical. As for the experimental part: The thermodynamic solubility of a research compound is measured under standard conditions. It is a shake-flask approach that uses 10 mM DMSO solutions which are supplied from the Compound Managements liquid store and is a high throughput method. The dried compounds are equilibrated in an aqueous phosphate buffer (pH 7.4) for 24 hours at 25° C., the portion with the dissolved compound is then separated from the remains. The solutions are analyzed and quantified using UPLC/MS/MS, QC-samples are incorporated in each assay-run to ensure the quality of the assay.

The subject of data set [2] is MCF7-Luciferase cell line. The experiment in a line: Control reporter (MCF7-Luciferase). It is filed as cell-based. Particulars: MCF7-Luciferase cells, luciferase activity after 24 hours. As for the experimental part: (iii) Control Reporter (MCF7-Luciferase)
MCF7-Luciferase cell line was obtained from […] (catalog number SC050-L) and was maintained in DMEM containing 10% fetal calf serum, 2 mM glutamine. Cells were grown in a humidified incubator at 37° C. with 5% CO2. Cells were distributed to flat bottom white polystyrene TC treated 384 well plates at a density of 3,500 cells/well in 30 μL. Cells were incubated for 24 hours at 37° C. with 5% CO2. Cells were acoustically dosed using an Echo 555, with compounds serially diluted in 100% DMSO. Plates were incubated for an additional 24 hours. Cells were examined for luciferase activity through the addition of 30 μL Bright-Glo luciferase (Promega catalog number E2620). Plates were incubated for 10 minutes at room temperature and luminescence was read using Tecan plate reader. The data obtained with each compound was exported to […] software to perform curve fitting analysis.

The test system of a further data set is MCF7-Tead cell line. Briefly: TEAD reporter assay. It is filed as cell-based. Particulars: MCF7-Tead cells, luciferase activity after 24 hours. On the procedure: MCF7-Tead cell line was obtained from BPS BIOSCIENCE (catalog number 60618) and was maintained in DMEM containing 10% fetal calf serum, 2 mM glutamine, and 400 μg/ml G418. Cells were grown in a humidified incubator at 37° C. with 5% CO2. Cells were distributed to flat bottom white polystyrene TC treated 384 well plates at a density of 3,500 cells/well in 30 uL. Cells were incubated for 24 hours at 37° C. with 5% CO2. Cells were acoustically dosed using an Echo 555, with compounds serially diluted in 100% DMSO. Plates were incubated for an additional 24 hours. Cells were examined for luciferase activity through the addition of 30 μL Bright-Glo luciferase (Promega catalog number E2620). Plates were incubated for 10 minutes at room temperature and luminescence was read using Tecan plate reader. The data obtained with each compound was exported to […] software to perform curve fitting analysis.
(In a reporter assay the amount or activity of a reporter protein is the signal.)

Another data set deals with TEAD4(217-434) (Homo sapiens (Human), UniProt Q15561). Briefly: TEAD4 FRET. Particulars: depalmitoylated, biotinylated TEAD4(217-434), FAM labelled Probe A, 120 min at 25° C. It is filed as binding. As for the experimental part:
Compounds were dosed with a final DMSO concentration of 1% (v/v). Compound IC50 values were assessed following a 10-point, half-log10 dilution schema starting at 100 μM compound concentration. Specifically, human TEAD protein from TEAD4(217-434) was cloned into an overexpression vector, expressed as an N-terminal HIS-TEV-Avi-tagged fusion protein in E coli, and subsequently purified, then protein was chemically depalmitoylated & biotinylated. The assay was performed in 384-well LV plates (384-well black, medium binding, PS, HIBASE, GREINER #784076) and run in the presence and absence of the compound of interest. Each well of 5 μL assay mixture contained 10 mM Tris-HCl (pH 7.5), 100 mM NaCl, 0.05 mM EDTA, 1 mM TECP, 1% DMSO, 0.03% Pluronic acid F127, 20 nM dePal Avi TEAD4 (217-434)-depalmitoylated & biotinylated protein, 0.8 nM Streptavidin Terbium cryptate (CisBio #610SATLB), 625 nM FAM labelled Probe A. Reactions were incubated at 25° C. for 120 min before reading on a PHERASTAR FSX Plate Reader (337 520 490 HTRF module required) (Supplier BMP).
The data file from the PHERAstar FSX contains both the acceptor (520 nm) and donor channels (490 nm) (“Channel A”=acceptor channel (520 nm), “Channel B”=donor channel (490 nm)). The ratio of the donor and acceptor (Channel A/Channel B) is calculated within Genedata Assay Analyzer.
Probe A is 3′,6′-dihydroxy-3-oxo-N-{8-[2-(5-{2-[4-(trifluoromethyl)anilino]phenyl}-2H-tetrazol-2-yl)acetamido]octyl}-3H-spiro[[2]benzofuran-1,9′-xanthene]-5-carboxamide;

Each structure is given as a SMILES string. ≈ marks a conversion by molar mass, not a printed value.

The source of these data is patent US20240116926A1, “HETEROAROMATIC COMPOUNDS” (AstraZeneca AB, priority 2022, published 2024).

Sequence of TEAD4(217-434) (Q15561 217-434): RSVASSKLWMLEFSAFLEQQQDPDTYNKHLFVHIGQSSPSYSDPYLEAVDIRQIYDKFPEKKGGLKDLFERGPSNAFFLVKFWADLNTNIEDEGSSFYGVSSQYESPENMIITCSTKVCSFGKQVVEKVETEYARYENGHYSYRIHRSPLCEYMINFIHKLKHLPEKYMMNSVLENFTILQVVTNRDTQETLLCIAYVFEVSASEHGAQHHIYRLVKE

As to `C=CC(=O)N1C[C@H](C#N)[C@H](Nc2nnc(-c3ccc(C(F)(F)F)cc3)c3ccccc23)C1` (single isomer, unassigned; enantiomer 1) [Example 29, enantiomer 1 of cis-1-acryloyl-4-((4-(4-(trifluoromethyl)phenyl)phthalazin-1-yl)amino)pyrrolidine-3-carbonitrile], the solubility (usually the concentration that dissolves in the medium under given conditions) at 24 h in data set [1] was found to be 7 µM (≈ 3.06 µg/mL). Further, the IC50 (commonly the concentration that inhibits the measured activity by half) in data set [2] worked out at 22200 nM; in the data set on MCF7-Tead cell line it was 94 nM.
In turn, `C=CC(=O)N1CC(C#N)[C@@H](Nc2nnc(-c3ccc(C(F)(F)F)cc3)c3ccccc23)C1` (single isomer, unassigned; enantiomer 1) [Example 30, enantiomer 1 of trans-1-acryloyl-4-((4-(4-(trifluoromethyl)phenyl)phthalazin-1-yl)amino)pyrrolidine-3-carbonitrile] showed a solubility at 24 h in data set [1] of 191 µM (≈ 83.5 µg/mL). Further, the IC50 in data set [2] amounted to 13000 nM; at TEAD4(217-434) it was 100 nM; in the data set with MCF7-Tead cell line, 143 nM.
`C=CC(=O)N1C[C@H](Nc2nnc(-c3ccc(C(F)(F)F)cc3)c3ccccc23)[C@@H](C(N)=O)C1` (single isomer, unassigned; enantiomer 1) [Example 31, enantiomer 1 of trans-1-acryloyl-4-((4-(4-(trifluoromethyl)phenyl)phthalazin-1-yl)amino)pyrrolidine-3-carboxamide] showed a solubility at 24 h in data set [1] of 534 µM (≈ 243 µg/mL). The IC50 in data set [2] came to 31100 nM; on TEAD4(217-434), 73 nM; in the data set on MCF7-Tead cell line it was 58 nM.
In the case of `C=CC(=O)N1CC[C@@H](Nc2ncc(-c3ccc(C(F)(F)F)cn3)c3ncccc23)C1` [Comparative Example A, (R)-1-(3-((8-(5-(trifluoromethyl)pyridin-2-yl)-1,6-naphthyridin-5-yl)amino)pyrrolidin-1-yl)prop-2-en-1-one, reference compound], the IC50 was over 31700 nM in data set [2] and 592 nM in the data set on MCF7-Tead cell line.
Turning to `C=CC(=O)N1CC(Nc2nc(-c3ccc(C(F)(F)F)cc3)nc3ccccc23)C1` [Comparative Example B, 1-[3-({2-[4-(trifluoromethyl)phenyl]-4-quinazolinyl}amino)-1-azetidinyl]-2-propen-1-one, reference compound], in data set [1], the solubility at 24 h was 2 µM (≈ 0.797 µg/mL). The IC50 in data set [2] was over 31700 nM; at TEAD4(217-434), 30 nM; with MCF7-Tead cell line, 161 nM.
In the case of `C=CC(=O)N1C[C@H](F)[C@H](Nc2nnc(-c3ccc(C(F)(F)F)cc3)c3ncccc23)C1` [Example 1, 1-((3S,4R)-3-fluoro-4-((8-(4-(trifluoromethyl)phenyl)pyrido[2,3-d]pyridazin-5-yl)amino)pyrrolidin-1-yl)prop-2-en-1-one], the solubility at 24 h in data set [1] was 209 µM (≈ 90.2 µg/mL). Moreover, the results for the half-inhibitory concentration (IC50) (in data set [2]; on TEAD4(217-434); in the data set on MCF7-Tead cell line) were 27300 nM, 93 nM and 67 nM, respectively.
In turn, `C#CC(=O)N1CC[C@H](Nc2nnc(-c3ccc(C(F)(F)F)cc3)c3ccccc23)C1` [Example 19, (S)-1-(3-((4-(4-(trifluoromethyl)phenyl)phthalazin-1-yl)amino)pyrrolidin-1-yl)prop-2-yn-1-one] registered a solubility at 24 h in data set [1] of 38 µM (≈ 15.6 µg/mL). The figures for the IC50 (in data set [2]; with MCF7-Tead cell line) were 977 nM and 515 nM, respectively.
In the same order, the values of `C=CC(=O)N1C[C@H](F)[C@H](Nc2ncc(-c3ccc(C(F)(F)F)cn3)c3ncccc23)C1` [Example 36, 1-((3S,4R)-3-fluoro-4-((8-(5-(trifluoromethyl)pyridin-2-yl)-1,6-naphthyridin-5-yl)amino)pyrrolidin-1-yl)prop-2-en-1-one] are 82 µM (≈ 35.4 µg/mL), over 31700 nM and 11 nM.
On to `C=CC(=O)N1C[C@@H](CN(C)C)[C@H](Nc2nnc(-c3ccc(C(F)(F)F)cc3)c3ccccc23)C1` [Example 46, 1-((3R,4S)-3-((dimethylamino)methyl)-4-((4-(4-(trifluoromethyl)phenyl)phthalazin-1-yl)amino)pyrrolidin-1-yl)prop-2-en-1-one], for which the IC50 in data set [2] came out at 19400 nM; against TEAD4(217-434), 830 nM; in the data set with MCF7-Tead cell line it was 283 nM.
